Laboratory results as given in PubChem BioAssay AID1845203 (Molecular Pharmacology Branch, DTP, NCI, 2023).

Test system: G-401 tumor spheroids, viability % test/control
Experiment: Anticancer human tumor G-401 cell line growth inhibition;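 further: spheroids exposed to compound for 7 days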;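 on viability, T/C: 100% = DMSO vehicle-treated spheroids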
Details: spheroids with HUVEC and MSC; for IC50: curve of first compound; for viability, T/C: stronger effect = lower value
How it was run: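 Complex spheroids of malignant cells with endothelial cells and mesenchymal stem cells; agents alone or combined, from near clinical Cmax (or 10 microM if unknown) down in half-log steps, 0.25% DMSO final.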

[1] = second compound 30 pM, first compound 0.00949 µM
[2] = second compound 30 pM, first compound 0.03 µM
[3] = second compound 30 pM, first compound 0.0949 µM
[4] = second compound 30 pM, first compound 0.3 µM
[5] = second compound 30 pM, first compound 0.949 µM
[6] = second compound 30 pM, first compound 3 µM
[7] = second compound 94.9 pM, first compound 0.00949 µM
[8] = second compound 94.9 pM, first compound 0.03 µM
[9] = second compound 94.9 pM, first compound 0.0949 µM
[10] = second compound 94.9 pM, first compound 0.3 µM
[11] = second compound 94.9 pM, first compound 0.949 µM
[12] = second compound 94.9 pM, first compound 3 µM
[13] = second compound 0.0003 µM, first compound 0.00949 µM
[14] = second compound 0.0003 µM, first compound 0.03 µM
[15] = second compound 0.0003 µM, first compound 0.0949 µM
[16] = second compound 0.0003 µM, first compound 0.3 µM
[17] = second compound 0.0003 µM, first compound 0.949 µM
[18] = second compound 0.0003 µM, first compound 3 µM
[19] = second compound 0.000949 µM, first compound 0.00949 µM
[20] = second compound 0.000949 µM, first compound 0.03 µM
[21] = second compound 0.000949 µM, first compound 0.0949 µM
[22] = second compound 0.000949 µM, first compound 0.3 µM
[23] = second compound 0.000949 µM, first compound 0.949 µM
[24] = second compound 0.000949 µM, first compound 3 µM
[25] = second compound 0.003 µM, first compound 0.00949 µM
[26] = second compound 0.003 µM, first compound 0.03 µM
[27] = second compound 0.003 µM, first compound 0.0949 µM
[28] = second compound 0.003 µM, first compound 0.3 µM
[29] = second compound 0.003 µM, first compound 0.949 µM
[30] = second compound 0.003 µM, first compound 3 µM

| Structure (SMILES) | IC50 (second compound 30 pM) | IC50 (second compound 94.9 pM) | IC50 (second compound 0.0003 µM) | IC50 (second compound 0.000949 µM) | IC50 (second compound 0.003 µM) | viability, T/C [3] | viability, T/C [4] | viability, T/C [5] | viability, T/C [6] | viability, T/C [9] | viability, T/C [10] | viability, T/C [11] | viability, T/C [12] | viability, T/C [15] | viability, T/C [16] | viability, T/C [17] | viability, T/C [18] | viability, T/C [21] | viability, T/C [22] | viability, T/C [23] | also measured |
| --- | --- | --- | --- | --- | --- | --- | --- | --- | --- | --- | --- | --- | --- | --- | --- | --- | --- | --- | --- | --- | --- |
| CNCc1ccc(-c2cc(-c3nc(-c4ccc(S(=O)(=O)C(C)C)cc4)cnc3N)on2)cc1 + COc1cc2c(cc1O)CCNC21CSC2c3c(OC(C)=O)c(C)c4c(c3C(COC1=O)N1C(O)C3Cc5cc(C)c(OC)c(O)c5C(C21)N3C)OCO4 | 1420 nM | 529 nM | 10.3 nM | < 9.49 nM | < 9.49 nM | 103% | 88.7% | 58.4% | 35% | 89.9% | 60.5% | 39.5% | 25.8% | 38.2% | 25.9% | 24.1% | 18.6% | 12.2% | 18.3% | 19.3% | viability, T/C [1]: 100%; viability, T/C [2]: 95.5%; viability, T/C [7]: 94.4%; viability, T/C [8]: 94.8%; viability, T/C [13]: 48%; viability, T/C [14]: 51.4%; viability, T/C [19]: 9.02%; viability, T/C [20]: 10.5%; viability, T/C [24]: 9.87%; viability, T/C [25]: 0.14%; viability, T/C [26]: 0.14%; viability, T/C [27]: 0.22%; viability, T/C [28]: 0.29%; viability, T/C [29]: 0.89%; viability, T/C [30]: 0.21% |
| Cc1sc2c(c1C)C(c1ccc(Cl)cc1)=NC(CC(=O)Nc1ccc(O)cc1)c1nnc(C)n1-2 (stereo not given) + COc1cc2c(cc1O)CCNC21CSC2c3c(OC(C)=O)c(C)c4c(c3C(COC1=O)N1C(O)C3Cc5cc(C)c(OC)c(O)c5C(C21)N3C)OCO4 | 160 nM | 115 nM | < 9.49 nM | < 9.49 nM | < 9.49 nM | 63.9% | 34.8% | 17.8% | 8.07% | 55.1% | 31.3% | 12% | 5.01% | 27.1% | 9.01% | 4.45% | 1.34% | 19.1% | 1.51% | 0.15% | viability, T/C [1]: 102%; viability, T/C [2]: 83.3%; viability, T/C [7]: 92.8%; viability, T/C [8]: 74.7%; viability, T/C [13]: 35.1%; viability, T/C [14]: 38.7%; viability, T/C [19]: 19.8%; viability, T/C [20]: 3.94%; viability, T/C [24]: 0.16%; viability, T/C [25]: 0.08%; viability, T/C [26]: 0.07%; viability, T/C [27]: 0.12%; viability, T/C [28]: 0.13%; viability, T/C [29]: 0.12%; viability, T/C [30]: 0.24% |
| Cn1ncnc1[C@H]1c2n[nH]c(=O)c3cc(F)cc(c23)N[C@@H]1c1ccc(F)cc1 + COc1cc2c(cc1O)CCNC21CSC2c3c(OC(C)=O)c(C)c4c(c3C(COC1=O)N1C(O)C3Cc5cc(C)c(OC)c(O)c5C(C21)N3C)OCO4 | 72.5 nM | < 9.49 nM | < 9.49 nM | < 9.49 nM | < 9.49 nM | 46% | 30.6% | 19.6% | 10.8% | 34.1% | 26.2% | 17.9% | 9.94% | 21.5% | 19.1% | 11.2% | 7.83% | 5.35% | 5.74% | 2.94% | viability, T/C [1]: 70.6%; viability, T/C [2]: 62%; viability, T/C [7]: 48.4%; viability, T/C [8]: 47.3%; viability, T/C [13]: 25.6%; viability, T/C [14]: 26.4%; viability, T/C [19]: 6.63%; viability, T/C [20]: 5.61%; viability, T/C [24]: 0.23%; viability, T/C [25]: 0.15%; viability, T/C [26]: 0.13%; viability, T/C [27]: 0.13%; viability, T/C [28]: 0.15%; viability, T/C [29]: 0.14%; viability, T/C [30]: 0.21% |
| O=C(c1cc(Cc2n[nH]c(=O)c3ccccc23)ccc1F)N1CCN(C(=O)C2CC2)CC1 + COc1cc2c(cc1O)CCNC21CSC2c3c(OC(C)=O)c(C)c4c(c3C(COC1=O)N1C(O)C3Cc5cc(C)c(OC)c(O)c5C(C21)N3C)OCO4 | 9070 nM | 6010 nM | < 94.9 nM | < 94.9 nM | < 94.9 nM | 80.3% | 97% | 88.3% | 77.8% | 89.4% | 78.8% | 82.2% | 71.5% | 32.3% | 37.4% | 39.3% | 29.5% | 10.1% | 5.68% | 7.52% | viability, T/C (second compound 30 pM, first compound 9.49 µM): 49.1%; viability, T/C (second compound 30 pM, first compound 30 µM): 30.1%; viability, T/C (second compound 94.9 pM, first compound 9.49 µM): 35.9%; viability, T/C (second compound 94.9 pM, first compound 30 µM): 25.7%; viability, T/C (second compound 0.0003 µM, first compound 9.49 µM): 18.7%; viability, T/C (second compound 0.0003 µM, first compound 30 µM): 16.2%; viability, T/C [24]: 6.02%; viability, T/C (second compound 0.000949 µM, first compound 9.49 µM): 5.03%; viability, T/C (second compound 0.000949 µM, first compound 30 µM): 1.6%; viability, T/C [27]: 0.13%; viability, T/C [28]: 0.15%; viability, T/C [29]: 0.12%; viability, T/C [30]: 0.18%; viability, T/C (second compound 0.003 µM, first compound 9.49 µM): 0.2%; viability, T/C (second compound 0.003 µM, first compound 30 µM): 0.24% |
